Values of other authors in patent US7776915B2, “Topical formulations and methods of use” (Tracie Martyn International, LLC, priority 2005, dated 2010).
Each block holds one compound with its values, some of them ahead of it.

Tests used:
neurites in the brain = settings: similar to the stimulating effect of nerve growth factor
[1] = dosages above 500 mg/kg body weight
ACE = ACE (Homo sapiens, UniProt P12821); settings: read-out: ACE inhibitor IC50
Chain of ACE (P12821 30-1306, species assumed): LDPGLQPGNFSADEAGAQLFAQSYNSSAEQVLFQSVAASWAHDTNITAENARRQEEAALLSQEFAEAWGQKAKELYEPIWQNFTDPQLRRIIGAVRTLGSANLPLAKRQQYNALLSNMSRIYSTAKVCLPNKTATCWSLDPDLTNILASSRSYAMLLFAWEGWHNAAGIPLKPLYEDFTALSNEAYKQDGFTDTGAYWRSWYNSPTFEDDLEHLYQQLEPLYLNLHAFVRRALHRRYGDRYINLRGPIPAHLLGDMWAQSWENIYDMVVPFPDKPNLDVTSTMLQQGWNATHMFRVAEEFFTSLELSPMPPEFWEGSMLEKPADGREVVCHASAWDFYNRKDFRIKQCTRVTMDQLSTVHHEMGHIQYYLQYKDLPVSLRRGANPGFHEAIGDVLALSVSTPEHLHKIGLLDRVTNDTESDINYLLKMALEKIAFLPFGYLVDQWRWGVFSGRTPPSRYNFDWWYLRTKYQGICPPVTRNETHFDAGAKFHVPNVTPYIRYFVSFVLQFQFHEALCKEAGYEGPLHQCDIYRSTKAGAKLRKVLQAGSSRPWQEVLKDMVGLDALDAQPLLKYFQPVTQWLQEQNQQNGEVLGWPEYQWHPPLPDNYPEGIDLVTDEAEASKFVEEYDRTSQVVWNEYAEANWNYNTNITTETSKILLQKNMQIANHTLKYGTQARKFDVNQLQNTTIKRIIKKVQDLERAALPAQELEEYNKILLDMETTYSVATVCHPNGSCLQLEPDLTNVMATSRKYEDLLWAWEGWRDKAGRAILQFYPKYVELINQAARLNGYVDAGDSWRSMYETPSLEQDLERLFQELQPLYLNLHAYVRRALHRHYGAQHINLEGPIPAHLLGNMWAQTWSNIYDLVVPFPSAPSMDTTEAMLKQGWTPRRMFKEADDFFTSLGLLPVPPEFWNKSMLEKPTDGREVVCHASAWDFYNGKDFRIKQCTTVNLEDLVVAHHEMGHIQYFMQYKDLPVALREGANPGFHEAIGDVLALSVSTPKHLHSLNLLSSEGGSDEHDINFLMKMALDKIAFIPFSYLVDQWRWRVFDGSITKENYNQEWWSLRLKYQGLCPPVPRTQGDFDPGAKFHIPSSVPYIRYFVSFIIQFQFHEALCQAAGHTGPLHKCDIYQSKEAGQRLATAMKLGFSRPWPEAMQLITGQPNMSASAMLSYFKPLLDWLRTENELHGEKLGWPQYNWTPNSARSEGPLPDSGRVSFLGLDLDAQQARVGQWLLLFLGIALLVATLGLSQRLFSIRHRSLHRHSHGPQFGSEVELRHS

Structure (SMILES): CC(=O)O[C@H](CC(=O)[O-])C[N+](C)(C)C.NC(N)=NCCC[C@H](N)C(=O)O [Acetyl-1-carnitine-arginate]
stimulation of the growth of neurites (neurites in the brain): ≤ 19.5%

Structure (SMILES): NCCC(=O)N[C@@H](Cc1cnc[nH]1)C(=O)O [Carnosine, β-alanyl-L-histidine]
safety in animal studies [1]: safe

IC50 (ACE): 10.4 µM
Structure (SMILES): N[C@@H](CCC(=O)N[C@@H](CS)C(=O)NCC(=O)O)C(=O)O [Glutathione]

water solubility: water-soluble
Structure (SMILES): Cc1ncc(CO)c(CN)c1O [Pyridoxamine, 4-aminomethyl-5-hydroxy-6-methyl-3-pyridinemethanol]
